Experimental findings from PubChem BioAssay AID652032 (The Scripps Research Institute Molecular Screening Center, 2013) are described below.

In the experiment the target is Kappa-type opioid receptor (Homo sapiens) (UniProt P41145). The experiment is described as follows: OPRK1 antagonists, late-stage follow-up, cell-based, fluorescence, dose response (AID 652032). The note with it: OPRK1-expressing cells, fluorescence antagonist read-out.
Sequence of Kappa-type opioid receptor (Homo sapiens) (P41145 whole entry, looked up): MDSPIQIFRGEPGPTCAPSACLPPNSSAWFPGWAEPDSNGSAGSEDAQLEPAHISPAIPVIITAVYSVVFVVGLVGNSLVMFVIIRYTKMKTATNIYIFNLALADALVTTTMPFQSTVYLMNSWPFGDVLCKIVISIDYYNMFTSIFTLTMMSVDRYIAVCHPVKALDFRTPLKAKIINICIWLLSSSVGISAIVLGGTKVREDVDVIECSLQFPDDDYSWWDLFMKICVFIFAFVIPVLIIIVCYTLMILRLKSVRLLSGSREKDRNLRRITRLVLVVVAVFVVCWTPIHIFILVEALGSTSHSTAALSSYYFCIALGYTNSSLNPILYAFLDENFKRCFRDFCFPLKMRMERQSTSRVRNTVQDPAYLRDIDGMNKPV
As to `COC(=O)c1cc(Br)cnc1N1CCC(NC2CCOCC2)CC1`, the IC50 (commonly the concentration that gives 50% inhibition) is 621 nM.

Turning to `COC(=O)c1cc(Br)cnc1N1CCC(N[C@@H]2CCCC[C@H]2O)CC1`, the IC50 was 231 nM.

Turning to `CC(C)OC(=O)c1cc(Br)cnc1N1CCC(NC2CCCCC2)CC1`, the IC50 was 398 nM.

On to `COC(=O)c1cc(Br)cnc1N1CCC(N(C)C2CCCCC2)CC1`, for which the IC50 is 2700 nM.

In the case of `O=C(O)c1cc(Br)cnc1N1CCC(NC2CCCCC2)CC1`, the concentration for half-maximal inhibition (IC50) was 5200 nM.

`COC(=O)c1cc(Br)cnc1N1CCC(NC2CCCC(O)C2)CC1` (configuration not stated): the IC50 was 652 nM.

Turning to `COC(=O)c1cc(Br)cnc1N1CCC(NCCO)CC1`, the IC50 is 9200 nM.

In the case of `COC(=O)c1cc(Br)cnc1N1CCC(N[C@H](C)C2CCCCC2)CC1`, the IC50 was 6800 nM.

Consider `COC(=O)c1cc(Br)cnc1N1CCC(NC2CCCCC2)CC1`, for which the IC50 is 133 nM.

As for `COC(=O)c1cc(Br)cnc1N1CCC(NC2CCCC2)CC1`, the IC50 was 120 nM.

As for `COC(=O)c1cc(NC(C)=O)cnc1N1CCC(NC2CCCCC2)CC1`, the half-maximal inhibitory concentration (IC50) is 628 nM.

For `COC(=O)c1cc(Br)cnc1N1CCC(NC2CCCCC2OC)CC1` (configuration not stated), the IC50 is 267 nM.

For the compound `COC(=O)c1cc(Br)cnc1N1CCC(N)C(O)C1` (configuration not stated), the 50% inhibitory concentration (IC50) is 5900 nM.

As to `COC(=O)c1cc(Br)cnc1N1CCC(NC2CCC(C)CC2)CC1` (configuration not stated), the IC50 is 536 nM.

Consider `COC(=O)c1cc(I)cnc1N1CCC(NC2CCCCC2)CC1`, for which the IC50 is 79 nM.

As to `COC(=O)c1cc(Br)cnc1N1CCC(CNC2CCCCC2)CC1`, the IC50 is 3500 nM.

Take `COC(=O)c1cc(F)cnc1N1CCC(NC2CCCCC2)CC1`: the IC50 was 6600 nM.

Regarding `COC(=O)c1cc(Br)cnc1N1CCC(NC2CCCCCC2)CC1`, the IC50 was 110 nM.

Take `COC(=O)c1cccnc1N1CCC(NC2CCCCC2)C(O)C1` (configuration not stated): the IC50 was 2200 nM.

Consider `COC(=O)c1cc(Br)cnc1N1CCC(NC2CCCCC2)C1` (configuration not stated), for which the IC50 is 185 nM.

With `COC(=O)c1cc(Cl)cnc1N1CCC(NC2CCCCC2)CC1`, the IC50 was 159 nM.

Regarding `CCOC(=O)c1cc(C(=O)OC)c(C)nc1N1CCC(NC2CCCCC2)CC1`, the IC50 is 2600 nM.
